Values joined by “and” are separate entries in the source; they are usually repeats but may differ in a detail not shown here. Equal entries are not always repeated. Inconclusive results and toxic doses are left out. Rule as the data show it: active = T/C of 150% or more; inactive = T/C below 125%. Peptide text beside a SMILES is read from it.
System: L1210 leukemia ip in BDF1 mice, survival T/C
Assay: NCI In Vivo Anticancer Drug Screen. Data for tumor model L1210 Leukemia (intraperitoneal) in B6D2F1 (BDF1) mice
Details: endpoint: mean survival time, higher = longer survival
Procedure, shortened: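 Each compound was tested against a transplantable tumor grown in mice. The endpoint was survival, with treated animals benchmarked against vehicle controls as a simple ratio.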

[1] = dose: 100.0 mg/kg/injection, schedule: Q01DX009 (ip), vehicle: saline
[2] = dose: 100.0 mg/kg/injection, schedule: Q01DX001 (ip), vehicle: saline
[3] = dose: 200.0 mg/kg/injection, schedule: Q01DX001 (ip), vehicle: saline
[4] = dose: 400.0 mg/kg/injection, schedule: Q01DX001 (ip), vehicle: saline
[5] = dose: 100.0 mg/kg/injection, schedule: Q04DX003 (ip), vehicle: Klucel (hydroxypropylcellulose) (HPC)
[6] = dose: 200.0 mg/kg/injection, schedule: Q04DX003 (ip), vehicle: Klucel (hydroxypropylcellulose) (HPC)
[7] = dose: 400.0 mg/kg/injection, schedule: Q04DX003 (ip), vehicle: Klucel (hydroxypropylcellulose) (HPC)
[8] = dose: 100.0 mg/kg/injection, schedule: Q04DX003 (ip), vehicle: saline with Tween-80
[9] = dose: 200.0 mg/kg/injection, schedule: Q04DX003 (ip), vehicle: saline with Tween-80

Measured: T/C

O=S(=O)(C/C=C/CC(Cl)(Cl)Cl)C/C=C/CC(Cl)(Cl)Cl
inactive: dose: 100.0 mg/kg/injection, schedule: Q01DX001 (ip), vehicle: acetone 95 % of control | [1] 90 % of control | dose: 100.0 mg/kg/injection, schedule: Q04DX003 (ip), vehicle: acetone 97 % of control | dose: 200.0 mg/kg/injection, schedule: Q01DX001 (ip), vehicle: acetone 94 % of control | dose: 200.0 mg/kg/injection, schedule: Q01DX009 (ip), vehicle: saline 93 % of control | dose: 200.0 mg/kg/injection, schedule: Q04DX003 (ip), vehicle: acetone 95 % of control | dose: 400.0 mg/kg/injection, schedule: Q01DX001 (ip), vehicle: acetone 89 % of control | dose: 400.0 mg/kg/injection, schedule: Q01DX009 (ip), vehicle: saline 92 % of control | dose: 400.0 mg/kg/injection, schedule: Q04DX003 (ip), vehicle: acetone 95 % of control

CCOC(=O)/C(C#N)=C(/C)C(C)C(=O)OCC (configuration not stated)
inactive: [2] 100 % of control | [1] 102 % of control | [3] 100 % of control | [4] 96 % of control

Cc1cccc(Cl)c1NC(=O)C(C)C
inactive: dose: 100.0 mg/kg/injection, schedule: Q01DX009 (ip), vehicle: other 101 % of control | dose: 200.0 mg/kg/injection, schedule: Q01DX009 (ip), vehicle: other 104 % of control | dose: 400.0 mg/kg/injection, schedule: Q01DX009 (ip), vehicle: other 98 % of control

Nc1nc(N)c(-c2ccc(Cl)c(Cl)c2)c(CCc2ccc(S(=O)(=O)F)cc2)n1
inactive: dose: 100.0 mg/kg/injection, schedule: Q01DX009 (ip), vehicle: Klucel (hydroxypropylcellulose) (HPC) 112 % of control | dose: 200.0 mg/kg/injection, schedule: Q01DX009 (ip), vehicle: Klucel (hydroxypropylcellulose) (HPC) 98 % of control

Cc1ccc(NCC(O)CN2CCN(CC(O)CNc3ccc(C)cc3)CC2)cc1 (configuration not stated)
inactive: dose: 100.0 mg/kg/injection, schedule: Q01DX001 (ip), vehicle: other 106 % of control | [5] 88 % of control | dose: 200.0 mg/kg/injection, schedule: Q01DX001 (ip), vehicle: other 95 % of control | [6] 94 % of control | dose: 400.0 mg/kg/injection, schedule: Q01DX001 (ip), vehicle: other 95 % of control | [7] 91 % of control

CC(=O)NC(CO)C(=O)NCC(=O)NC(CCCN=C(N)N)C(N)=O (stereo not drawn) (Ac-Ser-Gly-Arg-NH2; configuration not given here)
inactive: dose: 25.0 mg/kg/injection, schedule: Q04DX002 (ip), vehicle: Klucel (hydroxypropylcellulose) (HPC) 100 % of control | dose: 50.0 mg/kg/injection, schedule: Q04DX002 (ip), vehicle: Klucel (hydroxypropylcellulose) (HPC) 100 % of control | dose: 100.0 mg/kg/injection, schedule: Q04DX002 (ip), vehicle: Klucel (hydroxypropylcellulose) (HPC) 100 % of control

Nc1ccc(C(=O)Oc2ccccc2)c(O)c1
inactive: [5] 95 % of control | [6] 93 % of control | [7] 95 % of control

CC1(C)C2CCC1C(O)C2 (configuration not stated)
inactive: dose: 75.0 mg/kg/injection, schedule: Q01DX009 (ip), vehicle: saline 104 % of control | dose: 150.0 mg/kg/injection, schedule: Q01DX009 (ip), vehicle: saline 103 % of control | dose: 300.0 mg/kg/injection, schedule: Q01DX009 (ip), vehicle: saline 94 % of control

CC(=O)c1cc(I)c(O)c2ncccc12
inactive: dose: 6.25 mg/kg/injection, schedule: Q01DX009 (ip), vehicle: saline with Tween-80 91 % of control | dose: 6.25 mg/kg/injection, schedule: Q04DX003 (ip), vehicle: saline with Tween-80 95 % of control | dose: 12.5 mg/kg/injection, schedule: Q01DX009 (ip), vehicle: saline with Tween-80 91 % of control | dose: 12.5 mg/kg/injection, schedule: Q04DX003 (ip), vehicle: saline with Tween-80 106 % of control | dose: 25.0 mg/kg/injection, schedule: Q01DX009 (ip), vehicle: saline with Tween-80 89 % of control | dose: 25.0 mg/kg/injection, schedule: Q04DX003 (ip), vehicle: saline with Tween-80 116 % of control and 91 % of control | [8] 107 % of control

Oc1ccc(-c2nc3ccccc3s2)cc1
inactive: dose: 100.0 mg/kg/injection, schedule: Q01DX001 (ip), vehicle: Klucel (hydroxypropylcellulose) (HPC) 105 % of control | dose: 200.0 mg/kg/injection, schedule: Q01DX001 (ip), vehicle: Klucel (hydroxypropylcellulose) (HPC) 113 % of control | dose: 400.0 mg/kg/injection, schedule: Q01DX001 (ip), vehicle: Klucel (hydroxypropylcellulose) (HPC) 111 % of control

CCC(C)C(CN)(CCCCN1CCCCC1)c1cccc2ccccc12 (configuration not stated)
inactive: [8] 97 % of control | [9] 90 % of control

ClC(Cl)=C1SCCCS1
inactive: dose: 100.0 mg/kg/injection, schedule: Q01DX001 (ip), vehicle: saline with Tween-80 96 % of control | dose: 200.0 mg/kg/injection, schedule: Q01DX001 (ip), vehicle: saline with Tween-80 108 % of control

CC(C)(O)C1(O)CCCC1
inactive: dose: 50.0 mg/kg/injection, schedule: Q01DX001 (ip), vehicle: saline 95 % of control | [2] 93 % of control | [3] 101 % of control | [4] 93 % of control

O=C(O)C1CCN1Cc1ccccc1 (configuration not stated)
inactive: dose: 100.0 mg/kg/injection, schedule: Q04DX003 (ip), vehicle: saline 98 % of control | dose: 200.0 mg/kg/injection, schedule: Q04DX003 (ip), vehicle: saline 101 % of control | dose: 400.0 mg/kg/injection, schedule: Q04DX003 (ip), vehicle: saline 106 % of control

OC(OCCCCCCOC(O)C(Cl)(Cl)Cl)C(Cl)(Cl)Cl (configuration not stated)
inactive: dose: 100.0 mg/kg/injection, schedule: Q01DX009 (ip), vehicle: saline with Tween-80 93 % of control | [8] 98 % of control | dose: 200.0 mg/kg/injection, schedule: Q01DX009 (ip), vehicle: saline with Tween-80 98 % of control | [9] 104 % of control | dose: 400.0 mg/kg/injection, schedule: Q01DX009 (ip), vehicle: saline with Tween-80 106 % of control | dose: 400.0 mg/kg/injection, schedule: Q04DX003 (ip), vehicle: saline with Tween-80 98 % of control

CCCCCCCCCCCCCCCC[n+]1cccc(C(=O)NCO)c1
inactive: dose: 100.0 mg/kg/injection, schedule: Q01DX001 (ip), vehicle: carboxymethylcellulose (CMC) 93 % of control | dose: 200.0 mg/kg/injection, schedule: Q01DX001 (ip), vehicle: carboxymethylcellulose (CMC) 102 % of control

From PubChem BioAssay AID248 (DTP/NCI, 2004)
